Tests used:
[1] = Toxicity in Swiss mouse assessed as effect on motor performance administered intraperitoneally 30 mins before test by Chimney test; assay type: organism-based; settings: in vivo, ip
[2] = Toxicity in Swiss mouse assessed as effect on motor performance administered intraperitoneally 15 mins before test by Chimney test; assay type: organism-based; settings: in vivo, ip
Rattus norvegicus = species on record: Rattus norvegicus; assay: Displacement of [3H]flunitrazepam form benzodiazepine receptor in rat cerebral cortex assessed as specific radio-ligand binding level at 1 uM incubated for 20 mins by liquid scintillation counting method; assay type: tissue-based
Mus musculus [3] = assay: Anticonvulsant activity in Swiss mouse assessed as protection against seizures at 300 mg/kg, ip administered 60 mins before test by maximal electroshock seizure test; assay type: functional; settings: route intraperitoneal
[4] = Toxicity in Swiss mouse assessed as effect on motor performance administered intraperitoneally 120 mins before test by Chimney test; assay type: organism-based; settings: in vivo, ip
Mus musculus [5] = assay: Anticonvulsant activity in Swiss mouse assessed as protection against seizures administered intraperitoneally 120 mins before test by maximal electroshock seizure test; assay type: functional; settings: ip
[6] = biological target: GABA-A receptor; anion channel (Homo sapiens) (UniProt P14867+P47870+P18507+P28472+P48169+Q99928+Q9UN88+P34903+O00591+O14764+Q8N1C3+P18505+P78334+P47869+P31644+Q16445); assay: Displacement of [3H]muscimol form GABAA receptor in rat cerebral cortex assessed as specific radio-ligand binding level at 1 uM incubated for 10 mins by liquid scintillation counting method; assay type: tissue-based; settings: target entry is the homologue from another species
Mus musculus [7] = assay: Anticonvulsant activity in Swiss mouse assessed as protection against seizures administered intraperitoneally 60 mins before test by maximal electroshock seizure test; assay type: functional; settings: ip
Mus musculus [8] = assay: Anticonvulsant activity in Swiss mouse assessed as protection against seizures at 300 mg/kg, ip administered 15 mins before test by maximal electroshock seizure test; assay type: functional; settings: route intraperitoneal
Mus musculus [9] = assay: Anticonvulsant activity in Swiss mouse assessed as protection against seizures at 300 mg/kg, ip administered 30 mins before test by maximal electroshock seizure test; assay type: functional; settings: route intraperitoneal
[10] = Toxicity in Swiss mouse assessed as effect on motor performance administered intraperitoneally 60 mins before test by Chimney test; assay type: organism-based; settings: in vivo, ip
Mus musculus [11] = assay: Anticonvulsant activity in Swiss mouse assessed as protection against seizures at 300 mg/kg, ip administered 120 mins before test by maximal electroshock seizure test; assay type: functional; settings: route intraperitoneal
[12] = Protective index, ratio of TD50 in ip Swiss mouse dosed intraperitoneally 120 mins before test by Chimney test to anticonvulsant ED50 in Swiss mouse dosed intraperitoneally 120 mins before test by MES test; assay type: ADME, organism-based; settings: in vivo, read-out: Ratio TD50/ED50
[13] = Protective index, ratio of TD50 in ip Swiss mouse dosed intraperitoneally 30 mins before test by Chimney test to anticonvulsant ED50 in Swiss mouse dosed intraperitoneally 30 mins before test by MES test; assay type: ADME, organism-based; settings: in vivo, read-out: Ratio TD50/ED50
[14] = Protective index, ratio of TD50 in ip Swiss mouse dosed intraperitoneally 15 mins before test by Chimney test to anticonvulsant ED50 in Swiss mouse dosed intraperitoneally 15 mins before test by MES test; assay type: ADME, organism-based; settings: in vivo, read-out: Ratio TD50/ED50
[15] = Protective index, ratio of TD50 in ip Swiss mouse dosed intraperitoneally 60 mins before test by Chimney test to anticonvulsant ED50 in Swiss mouse dosed intraperitoneally 60 mins before test by MES test; assay type: ADME, organism-based; settings: in vivo, read-out: Ratio TD50/ED50
Mus musculus [16] = assay: Anticonvulsant activity in Swiss mouse assessed as protection against seizures administered intraperitoneally 15 mins before test by maximal electroshock seizure test; assay type: functional; settings: ip
Mus musculus [17] = assay: Anticonvulsant activity in Swiss mouse assessed as protection against seizures administered intraperitoneally 30 mins before test by maximal electroshock seizure test; assay type: functional; settings: ip

CCCCn1c(Cc2cccc(Cl)c2)n[nH]c1=S
TD50 at 0.5 h [1]: 310 mg/kg
TD50 at 0.25 h [2]: 326 mg/kg
Activity (Rattus norvegicus): 0%
Activity (Mus musculus [3]): 100%
TD50 at 2 h [4]: 325 mg/kg
ED50 (Mus musculus [5]): 102 mg/kg
Activity [6]: 13%
ED50 (Mus musculus [7]): 61.5 mg/kg
Activity (Mus musculus [8]): 100%
Activity (Mus musculus [9]): 100%
TD50 at 1 h [10]: 298 mg/kg
Activity (Mus musculus [11]): 100%
selectivity ratio at 2 h [12]: 3.2
selectivity ratio at 0.5 h [13]: 7.2
selectivity ratio at 0.25 h [14]: 7.3
selectivity ratio at 1 h [15]: 4.8
ED50 (Mus musculus [16]): 44.5 mg/kg
ED50 (Mus musculus [17]): 43.2 mg/kg

CCCCCCCCCn1c(Cc2cccc(Cl)c2)n[nH]c1=S
TD50 at 0.5 h [1]: 493 mg/kg
TD50 at 0.25 h [2]: 476 mg/kg
Activity (Rattus norvegicus): 0%
Activity (Mus musculus [3]): 100%
TD50 at 2 h [4]: 465 mg/kg
ED50 (Mus musculus [5]): 200 mg/kg
Activity [6]: 0%
ED50 (Mus musculus [7]): 86.8 mg/kg
Activity (Mus musculus [8]): 82.5%
Activity (Mus musculus [9]): 100%
TD50 at 1 h [10]: 493 mg/kg
Activity (Mus musculus [11]): 82.5%
selectivity ratio at 2 h [12]: 2.3
selectivity ratio at 0.5 h [13]: 4.2
selectivity ratio at 0.25 h [14]: 2.5
selectivity ratio at 1 h [15]: 5.7
ED50 (Mus musculus [16]): 193 mg/kg
ED50 (Mus musculus [17]): 117 mg/kg

CCCCCCCCn1c(Cc2cccc(Cl)c2)n[nH]c1=S
TD50 at 0.5 h [1]: 486 mg/kg
TD50 at 0.25 h [2]: 391 mg/kg
Activity (Rattus norvegicus): 0%
Activity (Mus musculus [3]): 100%
TD50 at 2 h [4]: 441 mg/kg
ED50 (Mus musculus [5]): 224 mg/kg
Activity [6]: 8%
ED50 (Mus musculus [7]): 153 mg/kg
Activity (Mus musculus [8]): 100%
Activity (Mus musculus [9]): 100%
TD50 at 1 h [10]: 436 mg/kg
Activity (Mus musculus [11]): 82.5%
selectivity ratio at 2 h [12]: 2
selectivity ratio at 0.5 h [13]: 2.9
selectivity ratio at 0.25 h [14]: 2.4
selectivity ratio at 1 h [15]: 2.8
ED50 (Mus musculus [16]): 162 mg/kg
ED50 (Mus musculus [17]): 166 mg/kg

CCCCCCn1c(Cc2cccc(Cl)c2)n[nH]c1=S
TD50 at 0.5 h [1]: > 1000 mg/kg
TD50 at 0.25 h [2]: > 1000 mg/kg
Activity (Rattus norvegicus): 1%
Activity (Mus musculus [3]): 100%
TD50 at 2 h [4]: 548 mg/kg
ED50 (Mus musculus [5]): 97.9 mg/kg
Activity [6]: 3%
ED50 (Mus musculus [7]): 83.6 mg/kg
Activity (Mus musculus [8]): 100%
Activity (Mus musculus [9]): 100%
TD50 at 1 h [10]: 541 mg/kg
Activity (Mus musculus [11]): 100%
selectivity ratio at 2 h [12]: 5.6
selectivity ratio at 0.5 h [13]: > 13.4
selectivity ratio at 0.25 h [14]: > 13.9
selectivity ratio at 1 h [15]: 6.5
ED50 (Mus musculus [16]): 72.1 mg/kg
ED50 (Mus musculus [17]): 74.5 mg/kg

NCCCC(=O)O
Activity [6]: 82%

CCCCCCn1c(-c2cccc(Cl)c2Cl)n[nH]c1=S
Activity (Rattus norvegicus): 10%
Activity (Mus musculus [3]): 25%
Activity [6]: 2%
Activity (Mus musculus [8]): 12.5%
Activity (Mus musculus [9]): 12.5%
Activity (Mus musculus [11]): 12.5%

CCn1c(Cc2cccc(Cl)c2)n[nH]c1=S
TD50 at 0.5 h [1]: 285 mg/kg
TD50 at 0.25 h [2]: 297 mg/kg
Activity (Rattus norvegicus): 15%
Activity (Mus musculus [3]): 100%
TD50 at 2 h [4]: 345 mg/kg
ED50 (Mus musculus [5]): 88.3 mg/kg
Activity [6]: 0%
ED50 (Mus musculus [7]): 69.9 mg/kg
Activity (Mus musculus [8]): 100%
Activity (Mus musculus [9]): 100%
TD50 at 1 h [10]: 290 mg/kg
Activity (Mus musculus [11]): 100%
selectivity ratio at 2 h [12]: 3.9
selectivity ratio at 0.5 h [13]: 5.2
selectivity ratio at 0.25 h [14]: 5.8
selectivity ratio at 1 h [15]: 4.1
ED50 (Mus musculus [16]): 51.1 mg/kg
ED50 (Mus musculus [17]): 54.4 mg/kg

CCCCCCCn1c(-c2cccc(Cl)c2Cl)n[nH]c1=S
Activity (Rattus norvegicus): 8%
Activity (Mus musculus [3]): 25%
Activity [6]: 3%
Activity (Mus musculus [8]): 25%
Activity (Mus musculus [9]): 25%
Activity (Mus musculus [11]): 12.5%

CN1C(=O)CN=C(c2ccccc2)c2cc(Cl)ccc21
Activity (Rattus norvegicus): 83%

Cc1ccc(-c2nc3ccc(C)cn3c2CC(=O)N(C)C)cc1
Activity (Rattus norvegicus): 73%

CCn1c(-c2cccc(Cl)c2Cl)n[nH]c1=S
Activity (Rattus norvegicus): 5%
Activity (Mus musculus [3]): 0%
Activity [6]: 19%
Activity (Mus musculus [8]): 0%
Activity (Mus musculus [9]): 0%
Activity (Mus musculus [11]): 0%

CCCCCCCCCCn1c(Cc2cccc(Cl)c2)n[nH]c1=S
Activity (Rattus norvegicus): 12%
Activity (Mus musculus [3]): 0%
Activity [6]: 15%
Activity (Mus musculus [8]): 0%
Activity (Mus musculus [9]): 0%
Activity (Mus musculus [11]): 0%

CCCCCn1c(Cc2cccc(Cl)c2)n[nH]c1=S
TD50 at 0.5 h [1]: 322 mg/kg
TD50 at 0.25 h [2]: 371 mg/kg
Activity (Rattus norvegicus): 14%
Activity (Mus musculus [3]): 100%
TD50 at 2 h [4]: 348 mg/kg
ED50 (Mus musculus [5]): 84.2 mg/kg
Activity [6]: 10%
ED50 (Mus musculus [7]): 68.4 mg/kg
Activity (Mus musculus [8]): 100%
Activity (Mus musculus [9]): 100%
TD50 at 1 h [10]: 329 mg/kg
Activity (Mus musculus [11]): 100%
selectivity ratio at 2 h [12]: 4.1
selectivity ratio at 0.5 h [13]: 5.2
selectivity ratio at 0.25 h [14]: 7.6
selectivity ratio at 1 h [15]: 4.8
ED50 (Mus musculus [16]): 48.5 mg/kg
ED50 (Mus musculus [17]): 62.5 mg/kg

CCCCCCCCCCCCn1c(Cc2cccc(Cl)c2)n[nH]c1=S
Activity (Rattus norvegicus): 12%
Activity (Mus musculus [3]): 0%
Activity [6]: 0%
Activity (Mus musculus [8]): 0%
Activity (Mus musculus [9]): 0%
Activity (Mus musculus [11]): 0%

CCCCCn1c(-c2cccc(Cl)c2Cl)n[nH]c1=S
TD50 at 0.5 h [1]: 354 mg/kg
TD50 at 0.25 h [2]: 386 mg/kg
Activity (Rattus norvegicus): 18%
Activity (Mus musculus [3]): 62.5%
TD50 at 2 h [4]: 326 mg/kg
ED50 (Mus musculus [5]): 348 mg/kg
Activity [6]: 0%
ED50 (Mus musculus [7]): 285 mg/kg
Activity (Mus musculus [8]): 37.5%
Activity (Mus musculus [9]): 62.5%
TD50 at 1 h [10]: 348 mg/kg
Activity (Mus musculus [11]): 37.5%
selectivity ratio at 0.5 h [13]: 1.3
selectivity ratio at 0.25 h [14]: 1.2
selectivity ratio at 1 h [15]: 1.2
ED50 (Mus musculus [16]): 329 mg/kg
ED50 (Mus musculus [17]): 276 mg/kg

CCCCn1c(-c2cccc(Cl)c2Cl)n[nH]c1=S
Activity (Rattus norvegicus): 14%
Activity (Mus musculus [3]): 25%
Activity [6]: 16%
Activity (Mus musculus [8]): 12.5%
Activity (Mus musculus [9]): 12.5%
Activity (Mus musculus [11]): 0%

From ChEMBL document CHEMBL3351688, “Studies on the anticonvulsant activity of 4-alkyl-1,2,4-triazole-3-thiones and their effect on GABAergic system” (Eur J Med Chem, 2014)
